Test results: PubChem BioAssay (NCI)
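48-hour exposure; five concentrations; linearly interpolated endpoints. TGI: total growth inhibition.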

Assays:
Experiment in all cases: DTP human tumour cell line panel, 48 h
CAKI-1 renal = test system: CAKI-1 renal
OVCAR-5 ovarian = test system: OVCAR-5 ovarian
NCI-H460 lung = test system: NCI-H460 lung
MOLT-4 leukemia = test system: MOLT-4 leukemia
TK-10 renal = test system: TK-10 renal
MCF7 breast = test system: MCF7 breast
EKVX NSCLC = test system: EKVX NSCLC
HS 578T breast = test system: HS 578T breast
SF-539 CNS = test system: SF-539 CNS
OVCAR-4 ovarian = test system: OVCAR-4 ovarian
SF-268 CNS = test system: SF-268 CNS
HOP-92 NSCLC = test system: HOP-92 NSCLC
SN12C renal = test system: SN12C renal
A549 NSCLC = test system: A549 NSCLC
K-562 leukemia = test system: K-562 leukemia

| SMILES | TGI (CAKI-1 renal) | TGI (OVCAR-5 ovarian) | TGI (NCI-H460 lung) | TGI (MOLT-4 leukemia) | TGI (TK-10 renal) | TGI (MCF7 breast) | TGI (EKVX NSCLC) | TGI (HS 578T breast) | TGI (SF-539 CNS) | TGI (OVCAR-4 ovarian) | TGI (SF-268 CNS) | TGI (HOP-92 NSCLC) | TGI (SN12C renal) | TGI (A549 NSCLC) | TGI (K-562 leukemia) |
| --- | --- | --- | --- | --- | --- | --- | --- | --- | --- | --- | --- | --- | --- | --- | --- |
| O=C(Nc1nn[nH]n1)c1nc(-c2ccccc2)cc(=O)[nH]1 | > 100 µM | > 100 µM | > 100 µM | > 100 µM | > 100 µM | > 100 µM | > 100 µM | > 100 µM | > 100 µM | > 100 µM | > 100 µM | > 100 µM | > 100 µM | > 100 µM | > 100 µM |
| Cc1ccccc1NC(=O)CC(=O)NNC(Sc1ccccc1)c1cc(N=Nc2ccc(Br)cc2)ccc1O (stereo unspecified) | > 10 µM | > 10 µM | > 10 µM | 3.1 µM | > 10 µM | > 10 µM | > 10 µM | > 10 µM | 4.73 µM | > 10 µM | > 10 µM | > 10 µM | > 10 µM | > 10 µM | 7.56 µM |
| COc1cc2nc(-c3cccs3)nc(Nc3cccc(Cl)c3)c2cc1OC | > 100 µM | > 100 µM | > 100 µM | > 100 µM | 25.3 µM | > 100 µM | > 100 µM | > 100 µM | > 100 µM | > 100 µM | > 100 µM | > 100 µM | > 100 µM | > 100 µM | > 100 µM |
| O=C1NC(N2CCOCC2)=N/C1=C\c1ccc(O)cc1 | > 100 µM | > 100 µM | – | > 100 µM | > 100 µM | > 100 µM | > 100 µM | > 100 µM | > 100 µM | > 100 µM | > 100 µM | > 100 µM | > 100 µM | > 100 µM | – |
| COC1=CC(=O)N(C)C(O)C1(C#N)OC1OC(CO)C(O)C(O)C1O (stereo unspecified) | > 100 µM | > 100 µM | > 100 µM | > 100 µM | > 100 µM | > 100 µM | > 100 µM | > 100 µM | > 100 µM | > 100 µM | > 100 µM | > 100 µM | > 100 µM | > 100 µM | > 10 µM |
| Cc1ccc(S(=O)(=O)NC(=O)C2=C3SCCN3C(=O)N(S(=O)(=O)c3ccc(C)cc3)C2c2ccccc2)cc1 (stereo unspecified) | > 100 µM | > 100 µM | > 100 µM | > 100 µM | > 100 µM | 90.7 µM | > 100 µM | > 100 µM | 61.6 µM | > 100 µM | > 100 µM | > 100 µM | > 100 µM | > 100 µM | > 100 µM |
| Cc1nc(-c2cc3ccccc3oc2=O)cs1 | > 100 µM | > 100 µM | > 100 µM | > 100 µM | > 100 µM | > 100 µM | > 100 µM | 65.8 µM | > 100 µM | > 100 µM | > 100 µM | 53.9 µM | > 100 µM | > 100 µM | > 100 µM |
| O=C1/C(=C/c2cccc3ccccc23)CCc2ccc([N+](=O)[O-])cc21 | > 100 µM | > 100 µM | > 100 µM | > 100 µM | > 100 µM | 86.5 µM | > 100 µM | 47.7 µM | 73.5 µM | – | > 100 µM | 74.4 µM | > 100 µM | > 100 µM | > 100 µM |
| NCCSCCC(=O)O | > 100 µM | > 100 µM | > 37.9 µM | > 100 µM | > 100 µM | > 100 µM | > 100 µM | > 100 µM | > 100 µM | > 100 µM | > 100 µM | > 100 µM | > 100 µM | > 100 µM | > 100 µM |
| CC(=O)OC[C@H]1On2nnnc2[C@H](OC(C)=O)[C@@H](OC(C)=O)[C@@H]1OC(C)=O | > 100 µM | > 100 µM | > 100 µM | > 100 µM | > 100 µM | > 100 µM | > 100 µM | > 100 µM | > 100 µM | > 100 µM | > 100 µM | > 100 µM | > 100 µM | > 100 µM | > 100 µM |
| CC1CCC2(OC1)OC1C(O)C3C4CCC5CC(OC6OC(CO)C(OC7OC(CO)C(O)C(OC8OCC(O)C(O)C8O)C7OC7OC(CO)C(O)C(OC8OC(CO)C(O)C(O)C8O)C7O)C(O)C6O)C(O)CC5(C)C4CCC3(C)C1C2C (stereo unspecified) | 2.68 µM | 4.12 µM | 3.35 µM | 15.1 µM | 6.1 µM | 4.78 µM | 9.8 µM | 4.5 µM | 10.9 µM | 4.04 µM | 4.85 µM | 26.5 µM | 9.88 µM | 4.32 µM | > 100 µM |
| CCOc1cc2c(cc1O)C(O)C[C@@H]1[C@@H]2CC[C@]2(C)[C@@H](O)CC[C@@H]12 (stereo partly specified) | > 100 µM | > 100 µM | – | > 100 µM | > 100 µM | > 100 µM | > 100 µM | > 100 µM | 3.6 µM | > 100 µM | > 100 µM | > 100 µM | > 100 µM | > 100 µM | > 36.4 µM |
| CC(C)=CCC[C@@H](C)C1=C(O)C(Nc2ccccc2I)=C(C)C(=O)C1=O | 41.3 µM | > 75 µM | > 75 µM | > 19.5 µM | > 75 µM | > 75 µM | > 75 µM | 47.4 µM | 30 µM | > 75 µM | > 69.3 µM | 50.2 µM | > 75 µM | > 50.6 µM | > 66.8 µM |
| COc1cccc(C2c3cc4c(cc3OC(Nc3ccccc3)C2C)OCO4)c1O (stereo unspecified) | 49.1 µM | > 93.8 µM | 26.4 µM | 16 µM | 64.2 µM | > 75 µM | > 55.9 µM | > 62.6 µM | 18.1 µM | > 100 µM | > 55.6 µM | 9.93 µM | 27.8 µM | 23.6 µM | 15 µM |
| O=c1c2nc(-c3ccccc3)oc2n(-c2ccccc2)c(=O)n1-c1ccccc1 | 18.2 µM | > 46.4 µM | > 46.4 µM | > 46.4 µM | 21.5 µM | > 46.4 µM | > 46.4 µM | 39.5 µM | 35.8 µM | 36.6 µM | 39.3 µM | 24.4 µM | > 46.4 µM | > 46.4 µM | > 46.4 µM |
